We go through one compound from PMC9170106, “Pre-clinical evaluation of LASSBio-1491: From in vitro pharmacokinetic study to in vivo leishmanicidal activity” (PLoS ONE, 2022).

Series [1] in a line: Aqueous solubility by UV spectroscopy. The conditions noted are these: phosphate buffer solution, buffer solution pH 7.4, 37 °C. The format is physicochemical. On the procedure: The solubility assay was carried out by correlating the concentration with the absorbance obtained by ultraviolet. First, a stock solution of the compound was prepared by dissolving 1 mg in 20 mL of methanol, and then the wavelength of greatest absorption of each compound was obtained by scanning between wavelengths from 200 nm to 500 nm. From the stock solution, six dilutions were prepared (dilution factor: 2.5), and the absorbance reading was performed in quartz cuvettes (10 mm optical path) in the UV-VIS spectrophotometer (Femto 800XI) at the previously determined wavelength. With the values obtained, a calibration curve with linear regression was made, in which the linearity of the analytical method is observed, with values of correlation coefficient (p > 0.95).
The compound was dissolved in a phosphate buffer solution (pH 7.4), prepared according to the Brazilian Pharmacopoeia (Vol.1) to obtain a supersaturated solution. The supersaturated aqueous solution was kept under stirring for 4 hours at 37°C and then the sample was filtered on a 0.45 μm filter to carry out the reading at the corresponding wavelength of the compound. The solubility was then determined through the equation of the straight line obtained by the linear regression of the calibration curve of each compound [19].

A short description of a further series: PAMPA-BBB permeability. From the text: (§1) The parallel artificial membrane permeability assay uses 96-well plate in a “sandwich” type system, where one plate overlaps the other (PAMPA). […] The lipid mixture that impregnates the PVDF filter has a different constitution for the permeability tests for the blood-brain barrier (Brain lipid from pig extract in dodecane) and gastro-intestinal tract (L-α soy phosphatidylcholine in dodecane). In the PAMPA BBB and TGI assays, the optical density values obtained in the reading at each selected wavelength, for each of the compounds were analyzed in comparison with the values of several controls. In the case of the BBB, these values were used to elaborate an equation and determine the permeability coefficient (Pe), using a previously elaborated spreadsheet, and, for the TGI, these values were used to determine the absorbed fraction (Fa%), both using the Excel® program.
On the technique in general: PAMPA measures passive passage across an artificial lipid membrane.

Another series in a line: Plasma stability. The format is in vitro ADME, rat. On the procedure: For analysis of plasma stability, the LASSBio-1491 in a final concentration of 5 μM from stock solution of 1 mM, was added in 50 μL of rat plasma solution diluted in 250 μL with PBS (pH 7.4) and was placed in a shaker at 37 °C under vigorous stirring for 0, 30, 60, 120 and 240 minutes. After each reaction time, 500 μL of cold methanol and 500 μL of cold acetonitrile containing 5 uM of methyl 1,1’biphenyl-4-carboxylate 5 μM (internal standard) were added to the wells to stop the reaction. The solution was mixed and centrifuged at 24500 x g for 15 min (Universal centrifuge 320R Hettich®). The supernatant (1 mL) was filtrated and placed in vials to be analyzed by HPLC-PDA, Shimadzu—LC20AD, Kromasil C-18 column (4.6 mm x 250 mm, 5 μm), SPD M20A diode array detector, flow 1 mL/min, mobile phase acetonitrile: water 1:1 (v/v) for LASSBio-1491 and acetonitrile: water 60:40 (v/v) for LASSBio-1736, for 20 minutes at 254 nm wavelength.

Another series can be described thus: PAMPA-GIT permeability. The note with it: PAMPA-GIT conditions.
Excerpt: as §1

Series [2] in a line: Microsomal metabolism. The format is in vitro ADME. The conditions noted are these: rat liver microsomes. The method, then: The study of the microsomal metabolism of the compounds was evaluated by placing 1 mg/ml rat liver microsome in a microcentrifuge tube, in the presence of a NADPH generator system (1 mM NADP^+, 1.5 mM MgCl2, 3.5 mM glucose-6-phosphate and 0.5 U/mL glucose-6-phosphate dehydrogenase) and phosphate buffer pH 7.4 in sufficient quantity for 250 μL. After 15 minutes of pre-incubation at 37°C in a water bath, the enzymatic reactions were started by adding 2 μL of a stock solution 1 mM from one of the prototypes (500 μL 20% DMSO 80% CH3CN), so that a final concentration of 5 μM was reached (0.2% DMSO, 0.8% acetonitrile).
Then, the samples were again incubated at 37°C under agitation for predetermined and fixed periods (0, 15, 30, 45 and 60 minutes). At the end of the incubation period 500 μL of cold methanol and 500 μL of cold acetonitrile containing 5 μM of methyl 1,1’biphenyl-4-carboxylate 5 μM (internal standard) were added to the wells to stop the reaction and the samples were homogenized and kept in an ice bath to accelerate protein precipitation. The mixture was centrifuged at 24500 x g for 15 minutes at 4°C (Universal centrifuge 320R Hettich®). Finally, the supernatant (1 mL) was filtrated and placed in vials to be analyzed by HPLC-PDA, Shimadzu—LC20AD, Kromasil C-18 column (4.6 mm x 250 mm, 5 μm), SPD M20A diode array detector, flow 1 mL/min, mobile phase acetonitrile: water 1:1 (v/v) for LASSBio-1491 and acetonitrile: water 60:40 (v/v) for LASSBio-1736, 20 minutes at 254 nm wavelength. Then, the microsomal half-life and clearance were calculated.
A general note: Liver microsomes are vesicles of endoplasmic reticulum, rich in cytochrome P450 enzymes.

Details of series [3]: method as in PMID 35497630. The note with it: cited from earlier work.
Details of series [4]: method as in PMID 35497630, PMID 29160126. The conditions noted are these: cited from earlier work.
A short description of series [5]: Microsomal metabolism. The format is in vitro ADME. The note with it: rat liver microsomes, without NADPH regenerating system.

Several values for one entry are separate records, joined by “and”; a condition that tells them apart may be missing. Equal values may be shown once.

For `O=C(N/N=C/c1ccc(C(F)(F)F)cc1)NNC(=O)c1ccc(Cl)cc1Cl` [LASSBio-1736], in series [1], the solubility at 4 h is 0.26 µM and 0.109 µg/mL. In “PAMPA-BBB permeability” (PAMPA), the Papp came to 106 nm/s. For the same compound, the Classification entry in the series “PAMPA-BBB permeability” (PAMPA-BBB) is listed as “CNS+”. The figures for the “Elimination rate constant (k)” value in “Plasma stability” (rat plasma) and in “Microsomal metabolism [2]” (with co-factor) were 0.0004 and 0.0033, respectively. For the same compound, the t1/2 in the series “Plasma stability” (rat plasma) is 28.9 h. Besides, the Metabolism rate in “Plasma stability” (rat plasma, 5 μM, 37 °C, up to 240 min) turned out to be 7.30%. In addition, the half-life at 5 μM in the series “Plasma stability” (rat, rat plasma diluted with PBS, pH 7.4, rat plasma) was 19.2 h; in “Microsomal metabolism [2]” (pH 7.4, with co-factor), 3.5 h. For the same compound, the recovery at 5 μM in “Plasma stability” (rat, rat plasma diluted with PBS, pH 7.4, read-out: Recovery rate) worked out at 59.9%. Further, in the series “PAMPA-GIT permeability”, the “solubility in the PAMPA-GIT experimental set” value was “insoluble”. In the series “Microsomal metabolism [2]” (pH 7.4, with co-factor, Volume x (0,693/t1/2)), this compound yielded a microsomal CLint at 5 μM of 0.825 µL/min/mg. The “Metabolism rate with co-factor” value in “Microsomal metabolism [2]” (with NADPH regenerating system) is reported as 18.33%. The compound further displayed a Clapp in the series “Microsomal metabolism [2]” (with co-factor, scaled to liver and rat weight) of 0.128 mL/min/kg. Also, the “signals of hepatic or renal toxicity” value in series [3] is on record as “no preliminary signals of hepatic or renal toxicity”. Moreover, the “stability in rat plasma” value in series [4] was “great stability in rat plasma”. The “Metabolism rate non co-factor” value in the series “Microsomal metabolism [5]” was 5.81%.

The term solubility denotes how much of the substance goes into solution per volume. High values mean a readily soluble substance, low ones a poorly soluble substance. Usually Papp stands for the rate of passage across a membrane or cell layer, normalised by area and donor concentration. Low values mean slow passage, high ones fast passage. What is called half-life is how long it takes for the measured level to halve. Low values mean fast loss, high ones slow loss. Usually microsomal CLint stands for a measure of how fast metabolising enzymes remove a compound, apart from limits set by blood flow.
